Columns and labels:
[1] = system: encephalomyocarditis virus (EMC); conditions: cited from earlier work
viruses = test: Viral inactivation by the photoreduction byproduct; conditions: byproduct formed by exposing methylene blue to visible ambient light

Row | SMILES | virucidal action on non-enveloped EMC [1] | effectiveness in inactivating viruses (viruses)
1 | CN(C)c1ccc2nc3ccc(=[N+](C)C)cc-3sc2c1 [methylene blue] | demonstrated a resistance to the virucidal action | 
2 | CN(C)c1ccc2c(c1)Sc1cc(N(C)C)ccc1N2 [leucomethylene blue] |  | not effective in inactivating viruses

Reference: US7374870B2, “Systems and methods for removing viral agents from blood” (Fenwal, Inc., priority 1996, dated 2008)
